Measurements taken from the supplement of paper PMC11208160.

Test: recombinant UMI read abundance after kanamycin selection (control-corrected) (log10(CPM+1)); higher = more efficient recombination; extreme values may be limits of the assay; sequences stand for … in AGTGCAGAGAAAATCGGCCAGTTTTCTCTGCCTGCAGTCCGCATGCCGTGGGACCCCTTGGGTTCTAACCTGTTGCCTAGATTTATGCAGCGGACTGCCTTTCTCCCAAAGTGATAAACCGG…AGGTTGGTTTCACT; site = the 11-nt donor
Procedure, shortened: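 Counts of recombinant UMIs were reported as log10(CPM+1). Before that, they were converted to CPM, averaged over replicates and scaled using control-derived factors. They came from PCR across the donor–target junction after Escherichia coli carrying the pair library and target plasmid was plated on IPTG (0.07 mM) plus kanamycin, or unselected, in two replicates each.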
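Note: IS621 bridge recombinase in Escherichia coli cells against a fixed T5 target plasmid.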

| Sequence | recombinant UMI read abundance (log10) |
| --- | --- |
| CCGAAGACATGGACCGGTTTTCCCGGTAATCCGTATTTGGC (site CCGAAGACTGC) | 0 |
| CCGAATCCATGGACCGGTTTTCCCGGTAATCCGTATTTGTA (site CCGAATCCTTA) | 0 |
| CCGAATCCATGGACCGGTTTTCCCGGTAATCCGTATTTGTA (site CGGAATCCTAA) | 0.00532 |
| CCGAATGCATGGACCGGTTTTCCCGGTAATCCGTATTTGAT (site CCGAATGCTAT) | 0.919 |
| CCGAATTCATGGACCGGTTTTCCCGGTAATCCGTATTTGTT (site CCGAATTCTAA) | 0 |
| CCGAATTCATGGACCGGTTTTCCCGGTAATCCGTATTTGTT (site CGGAATCCTAA) | 0.00782 |
| CCGAGCGCATGGACCGGTTTTCCCGGTAATCCGTATTTGAA (site CCGAGCGCTTT) | 0.998 |
| CCGAGCTCATGGACCGGTTTTCCCGGTAATCCGTATTTGTA (site CCGAGCTCTTA) | 0.496 |
| CCGAGGCCATGGACCGGTTTTCCCGGTAATCCGTATTTGGC (site CCGAGGCCTGC) | 0 |
| CCGATAGCATGGACCGGTTTTCCCGGTAATCCGTATTTGTG (site CCGATAGCTCA) | 0.0444 |
| CCGATAGCATGGACCGGTTTTCCCGGTAATCCGTATTTGTG (site CCGCTAGCTCA) | 0.0063 |
| CCGATAGCATGGACCGGTTTTCCCGGTAATCCGTATTTGTG (site CCGGTAGCTCA) | 0.00966 |
| CCGATAGCATGGACCGGTTTTCCCGGTAATCCGTATTTGTG (site CCGTTAGCTCA) | 0.0148 |
| CCGATATCATGGACCGGTTTTCCCGGTAATCCGTATTTGGC (site CCGATATCTGC) | 0.68 |
| CCGATCTCATGGACCGGTTTTCCCGGTAATCCGTATTTGAG (site CCGATCTCTCT) | 0.00289 |
| CCGCACACATGGACCGGTTTTCCCGGTAATCCGTATTTGGT (site CCGCACACTAC) | 0.509 |
| CCGCACACATGGACCGGTTTTCCCGGTAATCCGTATTTGTA (site CCACACACTTA) | 0.587 |
| CCGCACACATGGACCGGTTTTCCCGGTAATCCGTATTTGTA (site CCCCACACTTA) | 0.0105 |
| CCGCACACATGGACCGGTTTTCCCGGTAATCCGTATTTGTA (site CCGCACACTTA) | 0.895 |
| CCGCACACATGGACCGGTTTTCCCGGTAATCCGTATTTGTA (site CCTCACACTTA) | 0.00457 |
| CCGCATGCATGGACCGGTTTTCCCGGTAATCCGTATTTGCT (site CCGCATGCTAG) | 0.291 |
| CCGCATTCATGGACCGGTTTTCCCGGTAATCCGTATTTGCG (site CCGCATTCTCG) | 0.57 |
| CCGCCAGCATGGACCGGTTTTCCCGGTAATCCGTATTTGGG (site CCGCCAGCTCC) | 0 |
| CCGCCTCCATGGACCGGTTTTCCCGGTAATCCGTATTTGGC (site CCGCCTCCTGC) | 0 |
| CCGCGCACATGGACCGGTTTTCCCGGTAATCCGTATTTGTA (site CCGCGCACTTA) | 0.0144 |

| Sequence | recombinant UMI read abundance (log10) |
| --- | --- |
| CCGCGCACATGGACCGGTTTTCCCGGTAATCCGTATTTGTT (site CCGCGCACTAA) | 0.0199 |
| CCGCGTACATGGACCGGTTTTCCCGGTAATCCGTATTTGTT (site CCGCGTACTAA) | 0.0381 |
| CCGGAAACATGGACCGGTTTTCCCGGTAATCCGTATTTGCA (site CAGGAAACTTG) | 0 |
| CCGGAAACATGGACCGGTTTTCCCGGTAATCCGTATTTGCA (site CCGGAAACTTG) | 0.135 |
| CCGGAAACATGGACCGGTTTTCCCGGTAATCCGTATTTGCA (site CGGGAAACTTG) | 0 |
| CCGGAAACATGGACCGGTTTTCCCGGTAATCCGTATTTGCA (site CTGGAAACTTG) | 0 |
| CCGGAGTCATGGACCGGTTTTCCCGGTAATCCGTATTTGCC (site CAGGAGTCTGG) | 0 |
| CCGGAGTCATGGACCGGTTTTCCCGGTAATCCGTATTTGCC (site CCGGAGTCTGG) | 1.55 |
| CCGGAGTCATGGACCGGTTTTCCCGGTAATCCGTATTTGCC (site CGGGAGTCTGG) | 0 |
| CCGGAGTCATGGACCGGTTTTCCCGGTAATCCGTATTTGCC (site CTGGAGTCTGG) | 0 |
| CCGGCAGCATGGACCGGTTTTCCCGGTAATCCGTATTTGCA (site CCGGCAGCTTG) | 0.255 |
| CCGGCAGCATGGACCGGTTTTCCCGGTAATCCGTATTTGTA (site CCGGCAGCTTA) | 0.665 |
| CCGGTACCATGGACCGGTTTTCCCGGTAATCCGTATTTGAG (site CCGGTACCTCT) | 0 |
| CCGGTAGCATGGACCGGTTTTCCCGGTAATCCGTATTTGTG (site CCGATAGCTCA) | 0 |
| CCGGTAGCATGGACCGGTTTTCCCGGTAATCCGTATTTGTG (site CCGCTAGCTCA) | 0.0271 |
| CCGGTAGCATGGACCGGTTTTCCCGGTAATCCGTATTTGTG (site CCGGTAGCTCA) | 0.303 |
| CCGGTAGCATGGACCGGTTTTCCCGGTAATCCGTATTTGTG (site CCGTTAGCTCA) | 0.0101 |
| CCGGTCCCATGGACCGGTTTTCCCGGTAATCCGTATTTGTC (site CCGGTCCCTGA) | 0 |
| CCGGTTACATGGACCGGTTTTCCCGGTAATCCGTATTTGCT (site CCGATTACTAG) | 0.782 |
| CCGGTTACATGGACCGGTTTTCCCGGTAATCCGTATTTGCT (site CCGCTTACTAG) | 0 |
| CCGGTTACATGGACCGGTTTTCCCGGTAATCCGTATTTGCT (site CCGGTTACTAG) | 0 |
| CCGGTTACATGGACCGGTTTTCCCGGTAATCCGTATTTGCT (site CCGTTTACTAG) | 0 |
| CCGTAAGCATGGACCGGTTTTCCCGGTAATCCGTATTTGTG (site CCGTAAGCTCA) | 0.404 |
| CCGTAAGCATGGACCGGTTTTCCCGGTAATCCGTATTTGTG (site CCGTCAGCTCA) | 0.0145 |
| CCGTAAGCATGGACCGGTTTTCCCGGTAATCCGTATTTGTG (site CCGTGAGCTCA) | 0.011 |

| Sequence | recombinant UMI read abundance (log10) |
| --- | --- |
| CCGTAAGCATGGACCGGTTTTCCCGGTAATCCGTATTTGTG (site CCGTTAGCTCA) | 0.0113 |
| CCGTAGTCATGGACCGGTTTTCCCGGTAATCCGTATTTGGG (site CCGTAGTCTCC) | 0.0263 |
| CCGTCTACATGGACCGGTTTTCCCGGTAATCCGTATTTGCT (site CCGTATACTAG) | 0 |
| CCGTCTACATGGACCGGTTTTCCCGGTAATCCGTATTTGCT (site CCGTCTACTAG) | 0.223 |
| CCGTCTACATGGACCGGTTTTCCCGGTAATCCGTATTTGCT (site CCGTGTACTAG) | 0 |
| CCGTCTACATGGACCGGTTTTCCCGGTAATCCGTATTTGCT (site CCGTTTACTAG) | 0 |
| CCGTTACCATGGACCGGTTTTCCCGGTAATCCGTATTTGTG (site CCGTTAACTCA) | 0.00404 |
| CCGTTACCATGGACCGGTTTTCCCGGTAATCCGTATTTGTG (site CCGTTACCTCA) | 0.0136 |
| CCGTTACCATGGACCGGTTTTCCCGGTAATCCGTATTTGTG (site CCGTTAGCTCA) | 0.0116 |
| CCGTTACCATGGACCGGTTTTCCCGGTAATCCGTATTTGTG (site CCGTTATCTCA) | 0 |
| CCGTTAGCATGGACCGGTTTTCCCGGTAATCCGTATTTGCG (site CCGTTAGCTCA) | 0 |
| CCGTTAGCATGGACCGGTTTTCCCGGTAATCCGTATTTGCG (site CCGTTAGCTCC) | 0 |
| CCGTTAGCATGGACCGGTTTTCCCGGTAATCCGTATTTGCG (site CCGTTAGCTCG) | 0.184 |
| CCGTTAGCATGGACCGGTTTTCCCGGTAATCCGTATTTGCG (site CCGTTAGCTCT) | 0.0063 |
| CCGTTCACATGGACCGGTTTTCCCGGTAATCCGTATTTGCT (site CCGTTAACTAG) | 0 |
| CCGTTCACATGGACCGGTTTTCCCGGTAATCCGTATTTGCT (site CCGTTCACTAG) | 0.726 |
| CCGTTCACATGGACCGGTTTTCCCGGTAATCCGTATTTGCT (site CCGTTGACTAG) | 0 |
| CCGTTCACATGGACCGGTTTTCCCGGTAATCCGTATTTGCT (site CCGTTTACTAG) | 0 |
| CCGTTTACATGGACCGGTTTTCCCGGTAATCCGTATTTGCA (site CCGTTTACTAG) | 0 |
| CCGTTTACATGGACCGGTTTTCCCGGTAATCCGTATTTGCA (site CCGTTTACTCG) | 0 |
| CCGTTTACATGGACCGGTTTTCCCGGTAATCCGTATTTGCA (site CCGTTTACTGG) | 0 |
| CCGTTTACATGGACCGGTTTTCCCGGTAATCCGTATTTGCA (site CCGTTTACTTG) | 0 |
| CCGTTTACATGGACCGGTTTTCCCGGTAATCCGTATTTGCG (site CCGTTTACTAG) | 0 |
| CCGTTTACATGGACCGGTTTTCCCGGTAATCCGTATTTGCG (site CCGTTTACTCG) | 0.0437 |
| CCGTTTACATGGACCGGTTTTCCCGGTAATCCGTATTTGCG (site CCGTTTACTGG) | 0 |
